The data set can be described thus: Human HepG2 cell viability assay in 384 well format. The class given is toxicity, cell-based. Further details: dose 125 nL, time 70.5 hour; cytotoxicity at 70.5 h: concentration not given beside the values. The following applies: HepG2 cells, read-out: Inhibition.
Consider `COc1ncc(NC(=O)Nc2cc(C)ccc2OC)cn1`, for which the cytotoxicity at 70.5 h turned out to be 39.1%. The same measure for `Cc1nc(C)c(C(=O)N2CCc3nc4c(C)csc4c(=O)n3CC2)s1`: 0.911%; for `Cn1ccnc1CN1CC2(CCN(Cc3ccncc3)C2)C1`: -0.993%. In the case of `Cc1nc(CN2C[C@@H](NC(=O)C3CCC3)[C@H]3COC[C@H]32)cs1` it was -5.49%; in that of `CCCS(=O)(=O)N1CCN(c2ccnc(N3CCCC3)n2)CC1`, -7.03%; in that of `c1ccc2oc(CCCN3CCc4cncnc4C3)nc2c1`, -2.93%.

With `NS(=O)(=O)c1cc(C(=O)N2CCCCC2)cs1`, the cytotoxicity at 70.5 h is -4.34%. Consider `Cc1n[nH]c(C)c1CNCC(O)c1ccc(F)c(F)c1` (stereo unspecified), for which the cytotoxicity at 70.5 h is -3.32%. The same measure for `CCOc1cccc(C(=O)Nc2ccncc2)c1`: -8.85%.

On to `CCc1nc(CCNc2ncccc2S(N)(=O)=O)sc1C`, for which the cytotoxicity at 70.5 h amounted to 1.18%. As for `CCCc1noc(CN2CCN(CCC(C)C)CC2)n1`, the cytotoxicity at 70.5 h is -2.49%. The same measure for `CCN(CC)S(=O)(=O)CC(=O)N1CCc2ccc(F)cc21`: -2.84%. Regarding `OCC1(CC2CC2)CCCN(Cc2cnc(C3CCCCC3)nc2)C1` (stereo unspecified), the cytotoxicity at 70.5 h is -5.05%. In the case of `N#CCc1ccc(NC(=O)N[C@H](CO)Cc2ccc(O)cc2)cc1` it was -9.07%; in that of `CN(C)CC1CN(CC(=O)N2CCc3ccccc32)CCO1` (stereo unspecified), 11.8%; in that of `CN(CCc1ccncc1)C(=O)c1sccc1OC(F)F`, -10.6%. Regarding `OC1(CN2CCC(Oc3cccc(C(F)(F)F)c3)CC2)CCNC1` (stereo unspecified), the cytotoxicity at 70.5 h was -7.31%.

For `COCCC1(CO)CCCN(C(=O)c2cc(C#N)c(=O)[nH]c2C)C1` (stereo unspecified), the cytotoxicity at 70.5 h is -0.759%. In the case of `CCCOc1ccc2ccccc2c1CN1CC[C@@]2(O)CCNC[C@H]2C1` it was -4.34%. The same measure for `NC(=O)CN(C(=O)C1Cc2cc(Cl)ccc2O1)C1CCCC1` (stereo unspecified): 24.1%; for `CC(C)CN1C[C@H]2C[C@H](C(=O)NC3CCC3)[C@@H](C1)O2`: -1.14%; for `CCN(CC)CC(=O)NCCc1csc(N2CCCC2)n1`: -3.59%.

As to `COc1ccc(C(=O)N2C[C@@H](CN3CCCCC3)[C@@H](CO)C2)cc1Cl`, the cytotoxicity at 70.5 h is -1.81%. In the case of `Cc1nc(C2CCCN(C(=O)c3cc(C)sc3C)C2)no1` (stereo unspecified) it was -2.35%. In the case of `CN(CCc1ccncc1)C(=O)C1CSCN1C(=O)C(C)(C)C` (stereo unspecified) it was -8.71%; in that of `N#Cc1ccc(C(=O)O)nc1/C=C/c1cccc(Br)c1`, -4.7%; in that of `O=S(=O)(N1CCOCC1)N1CCCCC1CCn1cccn1` (stereo unspecified), 3.71%.

Regarding `Cc1ccc(C)c(C(C)NC(=O)N2CCC(n3cncn3)CC2)c1` (stereo unspecified), the cytotoxicity at 70.5 h was -3.74%.

As for `CCS(=O)(=O)N1CCC(NC(=O)c2cc(C(C)C)ccc2O)CC1`, the cytotoxicity at 70.5 h was 1.02%. The same measure for `O=C(CCCNC(=O)C1CC1)Nc1cnn(-c2ccccc2Cl)c1`: -1.38%; for `Cc1cc(C(F)F)nn1C(C)C(=O)NCc1ncc[nH]1` (stereo unspecified): -1.75%.

Turning to `O=C(Cn1cccn1)N1CCC(Oc2ccc(C(F)(F)F)cn2)CC1`, the cytotoxicity at 70.5 h is -0.904%. Regarding `Cc1cccc(NC(=O)[C@@H]2CCCN2CC(=O)Nc2ccccc2)n1`, the cytotoxicity at 70.5 h was -6.38%.

Turning to `CCn1c(C)cc(C(=O)NCc2cccc(NS(C)(=O)=O)c2)c1C`, the cytotoxicity at 70.5 h amounted to 16.2%.

As to `CN1CCCN(C(=O)c2cc3c(s2)CCN3C(=O)c2ccccc2)CC1`, the cytotoxicity at 70.5 h was -1.37%.

On to `CCn1cc(NC(=O)NCCc2ccc3c(c2)OCCO3)cn1`, for which the cytotoxicity at 70.5 h was -6.54%. In the case of `CC(C)(C)OC(=O)NC1(c2noc(-c3ccoc3)n2)CCC1` it was -6.71%. In the case of `COc1ccc(CC(=O)Nc2ccc3ncn(C(C)C)c(=O)c3c2)cc1` it was -5.16%; in that of `O=S1(=O)c2ccccc2C2(CCN(Cc3ccccc3)C2)N1CC1CC1` (stereo unspecified), -5.62%; in that of `CC(C)(CNc1ccc2ccc(F)cc2n1)NS(C)(=O)=O`, -7.19%.

On to `c1csc(CN2CCCn3cnc(COCC4CC4)c3C2)c1`, for which the cytotoxicity at 70.5 h turned out to be 0.853%. The same measure for `Brc1ccc2[nH]c3c(c2c1)CCCC3c1nn[nH]n1` (stereo unspecified): -14.8%; for `O=C(CN1CCN(CC(O)C2CC2)CC1)NCc1ccccc1Cl` (stereo unspecified): -10.5%; for `c1nc2n(c1CN1CCCC1)CCN(C1CCOCC1)CC2`: -7.69%.

Turning to `CSCc1noc(CNS(=O)(=O)c2cccc(C(=O)NC3CC3)c2)n1`, the cytotoxicity at 70.5 h was -10.1%. As for `CCOCc1nc2c(c(N(C)Cc3ccsc3)n1)CCNCC2`, the cytotoxicity at 70.5 h was -3.56%. In the case of `O=C(Cc1csc(-c2ccco2)n1)N1CCN(c2ccccc2O)CC1` it was -4.66%; in that of `c1ccc(-n2cc(CNCC3CCCN3c3cccnn3)cn2)cc1` (stereo unspecified), -5.35%; in that of `CC(C)CCN1CCN(C(=O)c2c[nH]nn2)CC1`, 14%. Consider `O=C(NCCCN1CCOCC1)c1ccnc(OCc2ccccc2)c1`, for which the cytotoxicity at 70.5 h is -1.25%.

On to `CC(NC(=O)NCCCn1cncn1)c1ccc(F)cc1` (stereo unspecified), for which the cytotoxicity at 70.5 h was -4.64%.

For `CN1CCOC(C(=O)Nc2nc(-c3ccc4c(c3)CCC4)n[nH]2)C1` (stereo unspecified), the cytotoxicity at 70.5 h was -6.75%. The same measure for `CN(Cc1ccc(C2CC(=O)Nc3n[nH]cc32)o1)S(C)(=O)=O` (stereo unspecified): 9.86%. The same measure for `CC(Cn1cccn1)NC(=O)NCc1ccccn1` (stereo unspecified): -3.27%.

In the case of `O=C1C[C@@H]2CCN(Cc3ccccc3)C[C@@H]2CCN1c1ccccc1`, the cytotoxicity at 70.5 h is 6.43%. In the case of `Cc1nn(-c2ccccc2)c(C)c1CNC(=O)NC1CC(=O)N(C)C1` (stereo unspecified) it was -1.18%. The same measure for `COCC1CN(CC2CC2)Cc2nn(C)cc21` (stereo unspecified): 13.1%; for `O=C(NC1CCCCC1)[C@H]1CNC[C@@H](COc2cccnc2)C1`: -3.95%; for `Cc1ccnc(N2CCCC(c3noc(C(C)C)n3)C2)n1` (stereo unspecified): 6.3%. In the case of `Cc1ccc(CN2CCC3(CC2)C(=O)N(CC(C)C)CCN3C)s1` it was 22.7%; in that of `CN(C)Cc1cc(=O)n2c(n1)CN(CC1CCOCC1)CCC2`, -10.5%. Take `O=C(CC1CCN(c2ncnc3cccc(F)c23)CC1)N1CCCC1`: the cytotoxicity at 70.5 h was -24.3%. In the case of `Cc1cnc(C)c(-c2cc(O)c3c(c2)CN(c2nccs2)CCO3)n1` it was -5.12%. In the case of `CCC(C)(C)NCc1nc(C(C)(C)NC(=O)OC(C)(C)C)no1` it was -10.2%; in that of `CC(=O)Nc1cccc(CN2CCCC2C(=O)Nc2nccs2)c1` (stereo unspecified), 17.5%; in that of `Nc1cc(-c2ccc(C(=O)O)cc2O)c2cc[nH]c2n1`, 4.2%. For `Cc1cc(C)nc(N2CC[C@@]3(O)CCN(S(=O)(=O)N(C)C)C[C@H]3C2)n1`, the cytotoxicity at 70.5 h came to 16.5%. In the case of `CC1COCCN1C(=O)Nc1cnc2c(cnn2C(C)C)c1` (stereo unspecified) it was -2.52%; in that of `COC1CCN(C(=O)c2cc(-c3ccc(Cl)cc3)on2)CC1`, -8.24%. In the case of `CCc1nnc2n1CCN(C(=O)c1cc3cc(C)ccc3[nH]1)C2` it was -13.6%; in that of `O=C(O)[C@]12CCCN(C3CCOC3)C[C@H]1CN(c1nncs1)C2` (stereo partly specified), -7.95%.
